Results taken from US12226412B2, “Heteroaryl-ketone fused azadecalin glucocorticoid receptor modulators” (Corcept Therapeutics, Inc., priority 2012, dated 2025).
Like-named read-outs stand apart in the source and are kept apart here.

Assays:
[1] = test system: induction of TAT by dexamethasone in HepG2 cells; assay: HepG2 tyrosine aminotransferase (TAT) assay; type: cell-based, human
[2] = molecular target: T1, human recombinant GR (Homo sapiens, UniProt P04150); assay: Human glucocorticoid receptor (GR) fluorescence polarisation (FP) binding assay
T1 construct: purchased PanVera P2812
T1 sequence (P04150 1-777): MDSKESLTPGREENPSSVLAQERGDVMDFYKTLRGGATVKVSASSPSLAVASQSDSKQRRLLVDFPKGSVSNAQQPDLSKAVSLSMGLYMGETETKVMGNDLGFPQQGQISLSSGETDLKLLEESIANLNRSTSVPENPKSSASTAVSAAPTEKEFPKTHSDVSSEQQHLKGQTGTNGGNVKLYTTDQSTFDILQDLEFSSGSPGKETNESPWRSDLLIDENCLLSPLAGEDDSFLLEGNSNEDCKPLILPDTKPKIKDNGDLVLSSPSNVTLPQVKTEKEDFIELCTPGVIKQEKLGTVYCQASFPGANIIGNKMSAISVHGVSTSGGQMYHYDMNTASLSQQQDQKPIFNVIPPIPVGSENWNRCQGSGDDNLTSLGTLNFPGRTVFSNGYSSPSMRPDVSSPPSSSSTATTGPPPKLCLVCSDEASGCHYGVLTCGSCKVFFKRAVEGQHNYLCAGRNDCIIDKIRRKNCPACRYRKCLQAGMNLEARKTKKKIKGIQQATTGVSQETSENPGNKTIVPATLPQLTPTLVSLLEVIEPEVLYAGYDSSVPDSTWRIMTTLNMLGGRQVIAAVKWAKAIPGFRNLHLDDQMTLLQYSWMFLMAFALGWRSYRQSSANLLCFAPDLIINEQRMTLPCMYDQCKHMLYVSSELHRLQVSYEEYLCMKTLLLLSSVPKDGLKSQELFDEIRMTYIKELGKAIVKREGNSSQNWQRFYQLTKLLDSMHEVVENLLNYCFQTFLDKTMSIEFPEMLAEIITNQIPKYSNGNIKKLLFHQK
Procedure, shortened: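 Competition fluorescence polarisation: 0.5 nM GS Red labelled glucocorticoid and 1 nM recombinant human GR with 8-point half-log compound series, 1% DMSO, 4 h room temperature, potassium phosphate pH 7.4 buffer with molybdate, EDTA, DTT. Affinity derived from the drop in polarisation, normalised to blank wells.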

[3] = HepG2 cells, challenge of 100 nM dexamethasone, Ki from IC50 by Cheng and Prusoff equation
[4] = human recombinant GR, fluorescence polarisation binding assay, read-out: GR binding

| SMILES | Ki [2, 4] [nM] | Ki [1, 3] [nM] | Ki [1] [nM] | Ki [2] [nM] |
| --- | --- | --- | --- | --- |
| O=C(c1ccccn1)[C@]12Cc3cnn(-c4ccc(F)cc4)c3C=C1CCN(S(=O)(=O)c1ccc(F)cc1)C2 [Example 2, (R)-(1-(4-fluorophenyl)-6-((4-fluorophenyl)sulfonyl)-4,4a,5,6,7,8-hexahydro-1H-pyrazolo[3,4-g]isoquinolin-4a-yl)(pyridin-2-yl)methanone] | – | – | < 20 | < 0.5 |
| CCCn1nncc1S(=O)(=O)N1CCC2=Cc3c(cnn3-c3ccc(F)cc3)C[C@]2(C(=O)c2ccccn2)C1 [Example 11CO, (R)-(1-(4-fluorophenyl)-6-((1-propyl-1H-1,2,3-triazol-5-yl)sulfonyl)-4,4a,5,6,7,8-hexahydro-1H-pyrazolo[3,4-g]isoquinolin-4a-yl)(pyridin-2-yl)methanone] | > 1 | 20 to 100 | – | – |
| O=C(c1nccs1)[C@]12Cc3cnn(-c4ccc(F)cc4)c3C=C1CCN(S(=O)(=O)c1ccc(Cl)c(Cl)c1)C2 [Example 12N, (R)-(6-((3,4-dichlorophenyl)sulfonyl)-1-(4-fluorophenyl)-4,4a,5,6,7,8-hexahydro-1H-pyrazolo[3,4-g]isoquinolin-4a-yl)(thiazol-2-yl)methanone] | 0.5 to 1 | < 20 | – | – |
| COc1c(F)cc(S(=O)(=O)N2CCC3=Cc4c(cnn4-c4ccc(F)cc4)C[C@]3(C(=O)c3ccccn3)C2)cc1F [Example 15D, (R)-(6-((3,5-difluoro-4-methoxyphenyl)sulfonyl)-1-(4-fluorophenyl)-4,4a,5,6,7,8-hexahydro-1H-pyrazolo[3,4-g]isoquinolin-4a-yl)(pyridin-2-yl)methanone] | 0.5 to 1 | < 20 | – | – |
| O=C(c1cscn1)[C@]12Cc3cnn(-c4ccc(F)cc4)c3C=C1CCN(S(=O)(=O)c1ccc(C(F)(F)F)cc1)C2 [Example 11, (R)-(1-(4-fluorophenyl)-6-((4-(trifluoromethyl)phenyl)sulfonyl)-4,4a,5,6,7,8-hexahydro-1H-pyrazolo[3,4-g]isoquinolin-4a-yl)(thiazol-4-yl)methanone] | – | 20 to 100 | – | < 0.5 |
| O=C(c1nccs1)[C@]12Cc3cnn(-c4ccc(F)cc4)c3C=C1CCN(S(=O)(=O)c1cccc(Cl)c1)C2 [Example 12E, (R)-(6-((3-chlorophenyl)sulfonyl)-1-(4-fluorophenyl)-4,4a,5,6,7,8-hexahydro-1H-pyrazolo[3,4-g]isoquinolin-4a-yl)(thiazol-2-yl)methanone] | < 0.5 | 20 to 100 | – | – |
| Cc1ccnc(C(=O)[C@]23Cc4cnn(-c5ccc(F)cc5)c4C=C2CCN(S(=O)(=O)c2ccc4c(c2)CCO4)C3)c1 [Example 11AN, (R)-(6-((2,3-dihydrobenzofuran-5-yl)sulfonyl)-1-(4-fluorophenyl)-4,4a,5,6,7,8-hexahydro-1H-pyrazolo[3,4-g]isoquinolin-4a-yl)(4-methylpyridin-2-yl)methanone] | < 0.5 | < 20 | – | – |
| CCn1nncc1S(=O)(=O)N1CCC2=Cc3c(cnn3-c3ccc(F)cc3)C[C@]2(C(=O)c2cc(C(F)(F)F)ccn2)C1 [Example 11CL, (R)-(6-((1-ethyl-1H-1,2,3-triazol-5-yl)sulfonyl)-1-(4-fluorophenyl)-4,4a,5,6,7,8-hexahydro-1H-pyrazolo[3,4-g]isoquinolin-4a-yl)(4-(trifluoromethyl)pyridin-2-yl)methanone] | > 1 | 20 to 100 | – | – |
| Cc1ccnc(C(=O)[C@]23Cc4cnn(-c5ccc(F)cc5)c4C=C2CCN(S(=O)(=O)c2ccc4c(c2)CC(=O)N4C)C3)c1 [Example 11AO, (R)-5-((1-(4-fluorophenyl)-4a-(4-methylpicolinoyl)-4a,5,7,8-tetrahydro-1H-pyrazolo[3,4-g]isoquinolin-6 (4H)-yl)sulfonyl)-1-methylindolin-2-one] | < 0.5 | < 20 | – | – |
| CCn1ncc(S(=O)(=O)N2CCC3=Cc4c(cnn4-c4ccc(F)cc4)C[C@]3(C(=O)c3cc(C(F)(F)F)ccn3)C2)n1 [Example 11CK, (R)-(6-((2-ethyl-2H-1,2,3-triazol-4-yl)sulfonyl)-1-(4-fluorophenyl)-4,4a,5,6,7,8-hexahydro-1H-pyrazolo[3,4-g]isoquinolin-4a-yl)(4-(trifluoromethyl)pyridin-2-yl)methanone] | < 0.5 | < 20 | – | – |

More lines, main results first:

| Ki [2, 4] [nM] | SMILES | Ki [1, 3] [nM] | Ki [1] [nM] | Ki [2] [nM] |
| --- | --- | --- | --- | --- |
| < 0.5 | Cn1ncnc1C(=O)[C@]12Cc3cnn(-c4ccc(F)cc4)c3C=C1CCN(S(=O)(=O)c1ccc(C(F)(F)F)cc1)C2 [Example 5D, (R)-(1-(4-fluorophenyl)-6-((4-(trifluoromethyl)phenyl)sulfonyl)-4,4a,5,6,7,8-hexahydro-1H-pyrazolo[3,4-g]isoquinolin-4a-yl)(1-methyl-1H-1,2,4-triazol-5-yl)methanone] | ≥ 100 | – | – |
| < 0.5 | Cn1cc(S(=O)(=O)N2CCC3=Cc4c(cnn4-c4ccc(F)cc4)C[C@]3(C(=O)c3cc(C(F)(F)F)ccn3)C2)nn1 [Example 11CG, (R)-(1-(4-fluorophenyl)-6-((1-methyl-1H-1,2,3-triazol-4-yl)sulfonyl)-4,4a,5,6,7,8-hexahydro-1H-pyrazolo[3,4-g]isoquinolin-4a-yl)(4-(trifluoromethyl)pyridin-2-yl)methanone] | < 20 | – | – |
| < 0.5 | O=C(c1nccs1)[C@]12Cc3cnn(-c4ccc(F)cc4)c3C=C1CCN(S(=O)(=O)c1ccc(F)c(C(F)(F)F)c1)C2 [Example 12I, (R)-(6-((4-fluoro-3-(trifluoromethyl)phenyl)sulfonyl)-1-(4-fluorophenyl)-4,4a,5,6,7,8-hexahydro-1H-pyrazolo[3,4-g]isoquinolin-4a-yl)(thiazol-2-yl)methanone] | 20 to 100 | – | – |
| < 0.5 | Cn1ncc(S(=O)(=O)N2CCC3=Cc4c(cnn4-c4ccc(F)cc4)C[C@]3(C(=O)c3ccccn3)C2)n1 (single isomer, unassigned) [Example 11DB] | < 20 | – | – |
| < 0.5 | O=C(c1ccccn1)[C@]12Cc3cnn(-c4ccc(F)c(F)c4)c3C=C1CCN(S(=O)(=O)c1ccc(Cl)c(Cl)c1)C2 [Example 15C, (R)-(6-((3,4-dichlorophenyl)sulfonyl)-1-(3,4-difluorophenyl)-4,4a,5,6,7,8-hexahydro-1H-pyrazolo[3,4-g]isoquinolin-4a-yl)(pyridin-2-yl)methanone] | 20 to 100 | – | – |
| < 0.5 | N#Cc1cccc(S(=O)(=O)N2CCC3=Cc4c(cnn4-c4ccc(F)cc4)C[C@]3(C(=O)c3cc(C(F)(F)F)ccn3)C2)c1 [Example 11BL, (R)-3-((1-(4-fluorophenyl)-4a-(4-(trifluoromethyl)picolinoyl)-4a,5,7,8-tetrahydro-1H-pyrazolo[3,4-g]isoquinolin-6 (4H)-yl)sulfonyl)benzonitrile] | < 20 | – | – |
| < 0.5 | O=C(c1nccs1)[C@]12Cc3cnn(-c4ccc(F)cc4)c3C=C1CCN(S(=O)(=O)c1ccc(N3CC[C@@H](F)C3)nc1)C2 [Example 9, ((R)-1-(4-fluorophenyl)-6-((6-((R)-3-fluoropyrrolidin-1-yl)pyridin-3-yl)sulfonyl)-4,4a,5,6,7,8-hexahydro-1H-pyrazolo[3,4-g]isoquinolin-4a-yl)(thiazol-2-yl)methanone] | ≥ 100 | – | – |
| < 0.5 | Cc1ccc(S(=O)(=O)N2CCC3=Cc4c(cnn4-c4ccc(F)cc4)C[C@]3(C(=O)c3nccs3)C2)cc1F [Example 12C, (R)-(6-((3-fluoro-4-methylphenyl)sulfonyl)-1-(4-fluorophenyl)-4,4a,5,6,7,8-hexahydro-1H-pyrazolo[3,4-g]isoquinolin-4a-yl)(thiazol-2-yl)methanone] | 20 to 100 | – | – |
| < 0.5 | CN(C)c1ccc(S(=O)(=O)N2CCC3=Cc4c(cnn4-c4ccc(F)cc4)C[C@]3(C(=O)c3ccccn3)C2)cn1 [Example 16, (R)-(6-((6-(dimethylamino)pyridin-3-yl)sulfonyl)-1-(4-fluorophenyl)-4,4a,5,6,7,8-hexahydro-1H-pyrazolo[3,4-g]isoquinolin-4a-yl)(pyridin-2-yl)methanone] | 20 to 100 | – | – |
| < 0.5 | O=C(c1ccccn1)[C@]12Cc3cnn(-c4ccc(F)cc4)c3C=C1CCN(S(=O)(=O)c1ccccc1F)C2 [Example 2L, (R)-(1-(4-fluorophenyl)-6-((2-fluorophenyl)sulfonyl)-4,4a,5,6,7,8-hexahydro-1H-pyrazolo[3,4-g]isoquinolin-4a-yl)(pyridin-2-yl)methanone] | < 20 | – | – |
| < 0.5 | Cn1cc(S(=O)(=O)N2CCC3=Cc4c(cnn4-c4ccc(F)cc4)C[C@]3(C(=O)c3ccccn3)C2)cn1 [Example 2M, (R)-(1-(4-fluorophenyl)-6-((1-methyl-1H-pyrazol-4-yl)sulfonyl)-4,4a,5,6,7,8-hexahydro-1H-pyrazolo[3,4-g]isoquinolin-4a-yl)(pyridin-2-yl)methanone] | 20 to 100 | – | – |
